According to patent US10334853B2, “Compositions and methods for treating ectoparasite infestation” (Larada Sciences, Inc., priority 2016, dated 2019):

System: live parasites, most commonly a louse
Assay: Petri dish screening: drops of test formulation on live parasites
Type: in vivo
Settings: evaluation of solvents, method of Example 1
Excerpt: In one procedure that provides an evaluative method for determining effectiveness of commercial products, live parasites were removed from subjects' hair and placed into a Petri dish. One to two drops of test formulation were placed upon the test insect, most commonly a louse. The specimen was observed under magnification for initial movement, and was kept under observation for up to fifteen additional minutes. […] The effectiveness of the treatment was then rated on a 0-4 scale, with a score of 0 denoting total ineffectiveness and a score of 4 denoting total kill.

Structure (SMILES): CCCCOC(=O)CC(C)O (stereo not shown) [Example B1, Butyl 3-hydroxybutyrate]
- Efficacy Score: 0 (No elimination of live lice after 5 minutes (100% live lice remain))
